This note sets out measurements from US8575153B2 (Kowa Company, Ltd., priority 2008, dated 2013).

The test concerns the target Recombinant human JAK3 enzyme (JAK3 kinase region; Ala795-Ser1124) (Homo sapiens, UniProt P52333). The test is described as follows: JAK3 Kinase Assay (Kinase-Glo luminescent, ATP consumption). Conditions: for inhibition at 0.1 µM: read-out: Inhibition rate (%) of JAK3 kinase activity; for Inhibition rate (%) of JAK3 kinase activity: test compound at 0.1 μM.

Recombinant human JAK3 enzyme (JAK3 kinase region; Ala795-Ser1124), sequence (P52333 795-1124): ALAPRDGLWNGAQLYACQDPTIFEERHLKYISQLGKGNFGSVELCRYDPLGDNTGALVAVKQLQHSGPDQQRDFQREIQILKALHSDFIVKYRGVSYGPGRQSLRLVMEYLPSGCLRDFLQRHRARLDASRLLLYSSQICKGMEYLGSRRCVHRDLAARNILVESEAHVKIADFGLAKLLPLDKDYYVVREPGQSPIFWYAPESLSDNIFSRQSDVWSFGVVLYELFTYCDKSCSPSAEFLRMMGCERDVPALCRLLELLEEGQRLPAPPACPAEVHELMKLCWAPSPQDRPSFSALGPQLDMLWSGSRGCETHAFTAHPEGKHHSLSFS
Procedure: Recombinant human JAK3 enzyme (JAK3 kinase region; Ala795-Ser1124) was purchased from Carna Biosciences, Inc.
The reaction was conducted in a kinase buffer (reaction volume: a total of 50 μl) containing 8 mM MOPS (pH 7.0), 0.2 mM EDTA, a test compound solution prepared to each concentration and 0.5 μg/ml JAK3 enzyme using a 96-well polystyrene plate (clear-bottom white-wall). […] After incubating them at room temperature for 2 hours, 50 μl of Kinase-Glo Luminescent Kinase Assay reagent (Promega) was added to each well, and further incubated at room temperature for 10 minutes. Using a chemiluminescence microplate reader MicroLumat LB96P (Berthold), chemiluminescence intensity was measured to quantitate the amount of ATP remaining after reaction. From the amount of ATP consumed in the phosphorylation reaction, the inhibition rate (%) of JAK3 kinase activity was determined.

For the compound `CC(C)S(=O)(=O)Nc1ccc(Nc2cc(NCc3ccccc3)c(C(N)=O)cn2)cc1` [Example 163, 4-(benzylamino)-6-({4-[(propan-2-ylsulfonyl)amino]phenyl}amino)pyridine-3-carboxyamide], the inhibition at 0.1 µM is 77%.

On to `CC(C)S(=O)(=O)Nc1cccc(Nc2cc(NCc3cc(F)cc(F)c3)c(C(N)=O)cn2)c1` [Example 165, 4-[(3,5-difluorobenzyl)amino]-6-({3-[(propan-2-ylsulfonyl)amino]phenyl}amino)pyridine-3-carboxyamide], for which the inhibition at 0.1 µM turned out to be 54%.

With `CC(C)S(=O)(=O)N1CCN(c2ccc(Nc3cc(NCc4c(F)cccc4F)c(C(N)=O)cn3)cc2)CC1` [Example 172, 4-[(2,6-difluorobenzyl)amino]-6-({4-[4-(propan-2-ylsulfonyl)piperazin-1-yl]phenyl}amino) pyridine-3-carboxyamide], the inhibition at 0.1 µM was found to be 59%.

As for `CC(C)S(=O)(=O)N1CCN(c2cccc(Nc3cc(NCc4cc(F)cc(F)c4)c(C(N)=O)cn3)c2)CC1` [Example 174, 4-[(3,5-difluorobenzyl)amino]-6-({3-[4-(propan-2-ylsulfonyl)piperazin-1-yl]phenyl}amino) pyridine-3-carboxyamide], the “Inhibition rate (%) of JAK3 kinase activity” value is reported as 58%. Turning to `NC(=O)c1cnc(Nc2ccc(N3CCC(C(=O)NCCO)CC3)cc2)cc1NCc1ccccc1` [Example 176, 4-(benzylamino)-6-[(4-{4-[(2-hydroxyethyl)carbamoyl]piperidino}phenyl)amino]pyridine-3-carboxyamide], the inhibition at 0.1 µM was found to be 86%. The same measure, in the same setting: the figure for `NC(=O)c1cnc(Nc2ccc(N3CCC(C(=O)N(CCO)CCO)CC3)cc2)cc1NCc1ccccc1` [Example 177, 4-(benzylamino)-6-[(4-{4-[bis(2-hydroxyethyl)carbamoyl]piperidino}phenyl)amino]pyridine-3-carboxyamide] is 84%; for `NC(=O)c1cnc(Nc2ccc(N3CCC(CCO)CC3)cc2)cc1NCc1cccc(F)c1F` [Example 178, 4-[(2,3-difluorobenzyl)amino]-6-({4-{4-(2-hydroxyethyl)piperidino]phenyl}amino)pyridine-3-carboxyamide] it is 90%; for `NC(=O)c1cnc(Nc2ccc(N3CCC(CCO)CC3)cc2)cc1NCc1cc(F)cc(F)c1` [Example 179] it is 78%. On the same count and under the same terms, the value for `NC(=O)c1cnc(Nc2ccc(N3CCC(CCO)CC3)cc2)cc1NCc1cccc([N+](=O)[O-])c1` [Example 180, 6-({4-[4-(2-hydroxyethyl)piperidino]phenyl}amino)-4-[(3-nitrobenzyl)amino]pyridine-3-carboxyamide] was 63%; that for `Cc1ccccc1CNc1cc(Nc2ccc(N3CCC(O)CC3)cc2)ncc1C(N)=O` [Example 185, 4-[(2-methylbenzyl)amino]-6-{[4-(4-hydroxypiperidino)phenyl]amino}pyridine-3-carboxyamide] was 87%. Consider `NC(=O)c1cnc(Nc2ccc(N3CCC(O)CC3)cc2)cc1NCc1ccccc1Cl` [Example 186, 4-[(2-chlorobenzyl)amino]-6-{[4-(4-hydroxypiperidino)phenyl]amino}pyridine-3-carboxyamide], for which the inhibition at 0.1 µM stood at 93%. Still for that read-out and setting: the value for `NC(=O)c1cnc(Nc2ccc(N3CCC(O)CC3)cc2)cc1NCc1cccc(F)c1F` [Example 187, 4-[(2,3-difluorobenzyl)amino]-6-{[4-(4-hydroxypiperidino)phenyl]amino}pyridine-3-carboxyamide] was 85%. Same read-out and setting: the value for `NC(=O)c1cnc(Nc2ccc(N3CCC(O)CC3)cc2)cc1NCc1cc(F)ccc1F` [Example 188, 4-[(2,5-difluorobenzyl)amino]-6-[(4-(4-hydroxypiperidino)phenyl]amino}pyridine-3-carboxyamide] was 89%. Take `CS(=O)(=O)NCCCc1ccc(Nc2cc(NCc3cc(F)cc(F)c3)c(C(N)=O)cn2)cc1` [Example 202]: the “Inhibition rate (%) of JAK3 kinase activity” value amounted to 88%. In the case of `CCN(CC)CC(=O)N1CCN(c2ccc(Nc3cc(NCc4cccc(F)c4F)c(C(N)=O)cn3)cc2)CC1` [Example 205, 6-({4-[4-(N,N-diethylglycyl)piperazin-1-yl]phenyl}amino}-4-[(2,3-difluorobenzyl)amino]pyridine-3-carboxyamide], the inhibition at 0.1 µM amounted to 98%.

For the compound `NC(=O)c1cnc(Nc2ccc(N3CCNCC3)cc2)cc1NCc1ccccc1` [Example 219], the inhibition at 0.1 µM was 65%. On to `NC(=O)c1cnc(Nc2ccc(N3CCNCC3)cc2)cc1NCc1cc(F)cc(F)c1` [Example 221, 4-[(3,5-difluorobenzyl)amino]-6-{[4-(piperazin-1-yl)phenyl]amino}pyridine-3-carboxyamide], for which the inhibition at 0.1 µM stood at 78%. Turning to `NC(=O)c1cnc(Nc2ccc(N3CCNCC3)cc2)cc1NCc1cc(F)ccc1F` [Example 222, 4-[(2,5-difluorobenzyl)amino]-6-{[4-(piperazin-1-yl)phenyl]amino}pyridine-3-carboxyamide], the inhibition at 0.1 µM is 78%. `NC(=O)c1cnc(Nc2ccc(N3CCNCC3)cc2)cc1NCc1c(F)cccc1F` [Example 223, 4-[(2,6-difluorobenzyl)amino]-6-{[4-(piperazin-1-yl)phenyl]amino}pyridine-3-carboxyamide]: the inhibition at 0.1 µM was 81%. For the compound `NC(=O)c1cnc(Nc2ccc(N3CCNCC3)cc2)cc1NCc1cccc([N+](=O)[O-])c1` [Example 224, 4-[(3-nitrobenzyl)amino]-6-{[4-(piperazin-1-yl)phenyl]amino}pyridine-3-carboxyamide], the inhibition at 0.1 µM was 68%. As for `NC(=O)c1cnc(Nc2cccc(N3CCNCC3)c2)cc1NCc1cc(F)cc(F)c1` [Example 225, 4-[(3,5-difluorobenzyl)amino]-6-{[3-(piperazin-1-yl)phenyl]amino}pyridine-3-carboxyamide], the inhibition at 0.1 µM was 74%.

With `COCCNc1ccc(Nc2cc(NCc3cc(F)cc(F)c3)c(C(N)=O)cn2)cc1` [Example 233, 4-[(3,5-difluorobenzyl)amino]-6-({4-[(2-methoxyethyl)amino]phenyl}amino)pyridine-3-carboxyamide], the inhibition at 0.1 µM came to 74%. The same measure, in the same setting: the figure for `NC(=O)c1cnc(Nc2ccc(NCCO)cc2)cc1NCc1cc(F)cc(F)c1` [Example 234, 4-[(3,5-difluorobenzyl)amino]-6-({4-[(2-hydroxyethyl)amino]phenyl}amino)pyridine-3-carboxyamide] is 72%. As for `CCN(CC)CCN1CCN(c2ccc(Nc3cc(NCc4ccccc4)c(C(N)=O)cn3)cc2)CC1` [Example 236, 4-(benzylamino)-6-[(4-{4-[2-(diethylamino)ethyl]piperazin-1-yl}phenyl)amino]pyridine-3-carboxyamide], the inhibition at 0.1 µM is 83%. Same read-out and setting: the figure for `CCN(CC)CCN1CCN(c2ccc(Nc3cc(NCc4cccc(F)c4F)c(C(N)=O)cn3)cc2)CC1` [Example 237, 6-[(4-{4-[2-(diethylamino)ethyl]piperazin-1-yl}phenyl)amino]-4-[(2,3-difluorobenzyl)amino]pyridine-3-carboxyamide] is 78%. `CCN(CC)CCN1CCN(c2ccc(Nc3cc(NCc4cc(F)cc(F)c4)c(C(N)=O)cn3)cc2)CC1` [Example 238, 6-[(4-{4-[2-(diethylamino)ethyl]piperazin-1-yl}phenyl)amino]-4-[(3,5-difluorobenzyl)amino]pyridine-3-carboxyamide]: the inhibition at 0.1 µM was determined as 100%.

In the case of `CCN(CC)CCN1CCN(c2cccc(Nc3cc(NCc4cc(F)cc(F)c4)c(C(N)=O)cn3)c2)CC1` [Example 239, 6-[(3-{4-[2-(diethylamino)ethyl]piperazin-1-yl}phenyl)amino]-4-[(3,5-difluorobenzyl)amino]pyridine-3-carboxyamide], the inhibition at 0.1 µM came out at 57%. Still for that read-out and setting: the value for `N#CCCN1CCN(c2ccc(Nc3cc(NCc4cc(F)cc(F)c4)c(C(N)=O)cn3)cc2)CC1` [Example 240, 6-({4-[4-(2-cyanoethyl)piperazin-1-yl]phenyl}amino)-4-[(3,5-difluorobenzyl)amino]pyridine-3-carboxyamide] was 85%.

In the case of `N#CCCN1CCN(c2ccc(Nc3cc(NCc4ccccc4)c(C(N)=O)cn3)cc2)CC1` [Example 241], the inhibition at 0.1 µM came out at 70%. Regarding `CN1CCCN(c2ccc(Nc3cc(NCc4ccccc4)c(C(N)=O)cn3)cc2)CC1` [Example 244, 4-(benzylamino)-6-{[4-(4-methyl-1,4-diazepan-1-yl)phenyl]amino}pyridine-3-carboxyamide], the inhibition at 0.1 µM came out at 59%.

Regarding `NC(=O)c1cnc(Nc2ccc(N3CCCN(CCO)CC3)cc2)cc1NCc1ccccc1` [Example 245, 4-(benzylamino)-6-({4-[4-(2-hydroxyethyl)-1,4-diazepan-1-yl]phenyl}amino)pyridine-3-carboxyamide], the inhibition at 0.1 µM turned out to be 62%. Still for that read-out and setting: the value for `N#CCC(=O)N1CCN(c2ccc(Nc3cc(NCc4ccccc4)c(C(N)=O)cn3)cc2)CC1` [Example 262, 4-(benzylamino)-6-({4-[4-(cyanoacetyl)piperazin-1-yl]phenyl}amino)pyridine-3-carboxyamide] was 78%; that for `N#CCC(=O)N1CCN(c2ccc(Nc3cc(NCc4cccc(F)c4F)c(C(N)=O)cn3)cc2)CC1` [Example 263, 6-({4-[4-(cyanoacetyl)piperazin-1-yl]phenyl}amino)-4-[(2,3-difluorobenzyl)amino]pyridine-3-carboxyamide] was 98%.

Turning to `N#CCC(=O)N1CCN(c2ccc(Nc3cc(NCc4cc(F)cc(F)c4)c(C(N)=O)cn3)cc2)CC1` [Example 264, 6-({4-[4-(cyanoacetyl)piperazin-1-yl]phenyl}amino)-4-[(3,5-difluorobenzyl)amino]pyridine-3-carboxyamide], the inhibition at 0.1 µM was 92%.

For the compound `N#CCC(=O)N1CCN(c2ccc(Nc3cc(NCc4cc(F)ccc4F)c(C(N)=O)cn3)cc2)CC1` [Example 265, 6-({4-[4-(cyanoacetyl)piperazin-1-yl]phenyl}amino)-4-[(2,5-difluorobenzyl)amino]pyridine-3-carboxyamide], the inhibition at 0.1 µM came to 74%.
